Target: PARP-1 enzyme (Homo sapiens (Human), UniProt P09874)
Assay: PARP enzyme activity assay (HT Universal Chemiluminescent PARP Assay Kit, histone-coated wells)
Format: biochemical
Details: for inhibition at 0.03 µM: read-out: Inhibition (%) at 30 nM; for inhibition at 0.1 µM: read-out: Inhibition (%) at 100 nM
Description: PARP is an enzyme responsible for post-translational modification, which may be activated by means of DNA damage. The process catalyzed by PARP in vivo is mainly NAD-dependent poly(ADP-ribosyl)ation, in which the substrates are mainly some nuclear proteins including PARP, one example of which is histone. In the present invention, the PARP activity is assayed by determining the poly(ADP-ribosyl)ation degree of histone coated in a 96-well plate in the presence of NAD, and the PARP activity under the action of a PARP inhibitor is correspondingly assayed, thereby evaluating the degree of inhibition of the compounds on PARP activity. Poly(ADP-ribosyl)ation of nuclear proteins is a post-translational modification occurred in response to DNA damage. PARP is the abbreviation of poly(ADP-ribose)polymerase, which catalyzes the attachment of poly(ADP-ribose) to an adjacent nuclear protein in the presence of NAD, thus eliciting a mechanism of DNA repair through base excision repair pathway. The level of biotin-labeled ADP-ribose binding to histone can be detected by using the HT Universal Chemiluminescent PARP Assay Kit commercially available from Trevigen Corp. […] HT Universal Chemiluminescent PARP Assay Kit with Histone-coated Strip Wells, commercially available from Trevigen (US), Catalog #: 4676-096-K. […] 4. The PARP enzyme was carefully diluted with the 1×PARP buffer just before use, the diluted enzyme solution should be used as quickly as possible and the remaining solution should be discarded. […] 2. […] 1. […] 2. […] 4. […] After washing, equal volume of the PeroxyGlow A and B solutions were uniformly mixed, 100 μl of the solution was added to each well, and the chemiluminescent signals were recorded on a plate reader immediately. The readout of each well is converted into the percent inhibition. […] Note: the readout of the positive control well is designated as 100% enzyme activity; the readout of the negative control well is designated as 0% enzyme activity; and the activity X refers to the readout from respective concentration of each sample.

PARP-1 enzyme, sequence (P09874 whole entry): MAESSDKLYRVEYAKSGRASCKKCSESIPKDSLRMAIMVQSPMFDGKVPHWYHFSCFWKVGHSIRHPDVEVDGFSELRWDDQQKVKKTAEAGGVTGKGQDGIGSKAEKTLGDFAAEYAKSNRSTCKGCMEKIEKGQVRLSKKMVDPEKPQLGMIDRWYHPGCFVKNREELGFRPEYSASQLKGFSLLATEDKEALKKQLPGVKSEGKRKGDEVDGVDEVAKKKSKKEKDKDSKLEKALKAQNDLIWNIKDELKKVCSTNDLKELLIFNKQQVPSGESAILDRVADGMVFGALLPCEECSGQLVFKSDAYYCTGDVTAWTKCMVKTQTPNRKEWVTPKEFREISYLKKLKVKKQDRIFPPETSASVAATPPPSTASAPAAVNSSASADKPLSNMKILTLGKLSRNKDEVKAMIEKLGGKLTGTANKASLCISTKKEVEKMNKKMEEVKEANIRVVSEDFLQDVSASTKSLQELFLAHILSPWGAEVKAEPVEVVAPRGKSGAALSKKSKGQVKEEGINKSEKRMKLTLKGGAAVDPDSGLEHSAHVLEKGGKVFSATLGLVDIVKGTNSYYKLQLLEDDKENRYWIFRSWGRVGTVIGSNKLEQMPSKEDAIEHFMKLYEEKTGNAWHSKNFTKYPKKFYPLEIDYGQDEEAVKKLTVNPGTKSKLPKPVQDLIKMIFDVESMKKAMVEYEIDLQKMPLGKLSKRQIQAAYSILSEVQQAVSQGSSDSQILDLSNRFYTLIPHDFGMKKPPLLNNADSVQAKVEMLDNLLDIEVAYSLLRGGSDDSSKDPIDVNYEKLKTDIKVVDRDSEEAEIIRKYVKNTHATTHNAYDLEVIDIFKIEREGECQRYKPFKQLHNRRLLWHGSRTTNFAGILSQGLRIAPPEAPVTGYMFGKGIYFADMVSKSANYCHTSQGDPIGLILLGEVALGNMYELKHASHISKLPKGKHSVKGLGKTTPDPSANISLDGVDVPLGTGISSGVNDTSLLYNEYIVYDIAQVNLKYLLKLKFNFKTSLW

## N#Cc1cnc(N2CCN(c3nc4c(C(N)=O)cc(F)cc4[nH]3)CC2)cn1 [Compound (37), 2-(4-(5-cyanopyrazin-2-yl)piperazin-1-yl)-6-fluoro-1H-benzimidazole-4-carboxamide]
  inhibition at 0.03 µM: 87%
  inhibition at 0.1 µM: 98%

## CNC(=O)c1cnc(N2CCN(c3nc4c(C(N)=O)cc(F)cc4[nH]3)CC2)cn1 [Compound (25), 6-fluoro-2-(4-(5-methylcarbamoylpyrazin-2-yl)piperazin-1-yl)-1H-benzimidazole-4-carboxamide]
  inhibition at 0.03 µM: 79%
  inhibition at 0.1 µM: 92%

## CNC(=O)c1ccc(N2CCN(c3nc4c(C(N)=O)cc(F)cc4[nH]3)CC2)nc1 [Compound (24), 6-fluoro-2-(4-(5-methylcarbamoylpyridin-2-yl)piperazin-1-yl)-1H-benzimidazole-4-carboxamide]
  inhibition at 0.03 µM: 45%
  inhibition at 0.1 µM: 65%

## NC(=O)c1cccc2[nH]c(N3CCN(c4nccc(C(F)(F)F)n4)CC3)nc12 [Compound (9), 2-(4-(4-trifluoromethylpyrimidin-2-yl)piperazin-1-yl)-1H-benzimidazole-4-carboxamide]
  inhibition at 0.03 µM: 16%
  inhibition at 0.1 µM: 31%

## CC(=O)Nc1cnc(N2CCN(c3nc4c(C(N)=O)cccc4[nH]3)CC2)nc1 [Compound (4), 2-(4-(5-acetamidopyrimidin-2-yl)piperazin-1-yl)-1H-benzimidazole-4-carboxamide]
  inhibition at 0.03 µM: 27%
  inhibition at 0.1 µM: 53%

## NC(=O)c1cc(F)cc2[nH]c(N3CCN(c4ncc(F)cn4)CC3)nc12 [Compound (17), 6-fluoro-2-(4-(5-fluoropyrimidin-2-yl)piperazin-1-yl)-1H-benzimidazole-4-carboxamide]
  inhibition at 0.03 µM: 56%
  inhibition at 0.1 µM: 78%

## NC(=O)c1cccc2[nH]c(N3CCN(c4ncccn4)CC3)nc12 [Compound (1), 2-(4-(pyrimidin-2-yl)piperazin-1-yl)-1H-benzimidazole-4-carboxamide]
  inhibition at 0.03 µM: 59%
  inhibition at 0.1 µM: 76%

## CNC(=O)c1cccnc1N1CCN(c2nc3c(C(N)=O)cc(F)cc3[nH]2)CC1 [Compound (20), 6-fluoro-2-(4-(3-methylcarbamoylpyridin-2-yl)piperazin-1-yl)-1H-benzimidazole-4-carboxamide]
  inhibition at 0.03 µM: 39%
  inhibition at 0.1 µM: 67%

## CNC(=O)c1cnc(N2CCN(c3nc4c(C(N)=O)cc(F)cc4[nH]3)CC2)nc1 [Compound (22), 6-fluoro-2-(4-(5-methylcarbamoylpyrimidin-2-yl)piperazin-1-yl)-1H-benzimidazole-4-carboxamide]
  inhibition at 0.03 µM: 71%
  inhibition at 0.1 µM: 93%

## NC(=O)c1cc(F)cc2[nH]c(N3CCN(c4cnc(C(F)(F)F)cn4)CC3)nc12 [Compound (35), 6-fluoro-2-(4-(5-trifluoromethylpyrazin-2-yl)piperazin-1-yl)-1H-benzimidazole-4-carboxamide]
  inhibition at 0.03 µM: 76%
  inhibition at 0.1 µM: 91%

## NC(=O)c1cc(F)cc2[nH]c(N3CCN(c4ncc(C(F)(F)F)cn4)CC3)nc12 [Compound (34), 6-fluoro-2-(4-(5-trifluoromethylpyrimidin-2-yl)piperazin-1-yl)-1H-benzimidazole-4-carboxamide]
  inhibition at 0.03 µM: 36%
  inhibition at 0.1 µM: 60%

## CN(C)C(=O)c1cnc(N2CCN(c3nc4c(C(N)=O)cc(F)cc4[nH]3)CC2)cn1 [Compound (36), 2-(4-(5-dimethylcarbamoylpyrazin-2-yl)piperazin-1-yl)-6-fluoro-1H-benzimidazole-4-carboxamide]
  inhibition at 0.03 µM: 83%
  inhibition at 0.1 µM: 92%

## CNC(=O)c1ncc(N2CCN(c3nc4c(C(N)=O)cc(F)cc4[nH]3)CC2)cn1 [Compound (39)]
  inhibition at 0.03 µM: 78%
  inhibition at 0.1 µM: 92%

## NC(=O)c1cc(F)cc2[nH]c(N3CCN(c4ccc(C(F)(F)F)nc4)CC3)nc12 [Compound (32), 6-fluoro-2-(4-(6-trifluoromethylpyridine-3-yl)piperazin-1-yl)-1H-benzimidazole-4-carboxamide]
  inhibition at 0.03 µM: 66%
  inhibition at 0.1 µM: 84%

## CC(C)NC(=O)c1cnc(N2CCN(c3nc4c(C(N)=O)cc(F)cc4[nH]3)CC2)cn1 [Compound (27), 6-fluoro-2-(4-(5-isopropylcarbamoylpyrazin-2-yl)piperazin-1-yl)-1H-benzimidazole-4-carboxamide]
  inhibition at 0.03 µM: 66%
  inhibition at 0.1 µM: 86%

## CNC(=O)c1ccc(N2CCN(c3nc4c(C(N)=O)cc(F)cc4[nH]3)CC2)nn1 [Compound (23), 6-fluoro-2-(4-(6-methylcarbamoylpyridazin-3-yl)piperazin-1-yl)-1H-benzimidazole-4-carboxamide]
  inhibition at 0.03 µM: 78%
  inhibition at 0.1 µM: 89%

## CN(C)C(=O)c1ccc(N2CCN(c3nc4c(C(N)=O)cccc4[nH]3)CC2)nc1 [Compound (15), 2-(4-(5-dimethylcarbamoylpyridin-2-yl)piperazin-1-yl)-1H-benzimidazole-4-carboxamide]
  inhibition at 0.03 µM: 44%
  inhibition at 0.1 µM: 70%

## CC(C)(C)NC(=O)c1cnc(N2CCN(c3nc4c(C(N)=O)cc(F)cc4[nH]3)CC2)cn1 [Compound (28), 2-(4-(5-t-butylcarbamoylpyrazin-2-yl)piperazin-1-yl)-6-fluoro-1H-benzimidazole-4-carboxamide]
  inhibition at 0.03 µM: 53%
  inhibition at 0.1 µM: 78%

## NC(=O)c1cccc2[nH]c(N3CCN(c4ccncn4)CC3)nc12 [Compound (7), 2-(4-(pyrimidin-4-yl)piperazin-1-yl)-1H-benzimidazole-4-carboxamide]
  inhibition at 0.03 µM: 73%
  inhibition at 0.1 µM: 85%

## CN(C)C(=O)c1ncc(N2CCN(c3nc4c(C(N)=O)cc(F)cc4[nH]3)CC2)cn1 [Compound (41), 2-(4-(2-dimethylcarbamoylpyrimidin-5-yl)piperazin-1-yl)-6-fluoro-1H-benzimidazole-4-carboxamide]
  inhibition at 0.03 µM: 75%
  inhibition at 0.1 µM: 92%

## CCNc1cccnc1N1CCN(c2nc3c(C(N)=O)cccc3[nH]2)CC1 [Compound (8), 2-(4-(3-ethylaminopyridin-2-yl)piperazin-1-yl)-1H-benzimidazole-4-carboxamide]
  inhibition at 0.03 µM: 8%
  inhibition at 0.1 µM: 16%

## NC(=O)c1ccc(N2CCN(c3nc4c(C(N)=O)cccc4[nH]3)CC2)nc1 [Compound (12), 2-(4-(5-carbamoylpyridin-2-yl)piperazin-1-yl)-1H-benzimidazole-4-carboxamide]
  inhibition at 0.03 µM: 57%
  inhibition at 0.1 µM: 77%

## CCNC(=O)c1cnc(N2CCN(c3nc4c(C(N)=O)cc(F)cc4[nH]3)CC2)cn1 [Compound (26), 2-(4-(5-ethylcarbamoylpyrazin-2-yl)piperazin-1-yl)-6-fluoro-1H-benzimidazole-4-carboxamide]
  inhibition at 0.03 µM: 80%
  inhibition at 0.1 µM: 94%

## CCNC(=O)c1ncc(N2CCN(c3nc4c(C(N)=O)cc(F)cc4[nH]3)CC2)cn1 [Compound (40), 2-(4-(2-ethylcarbamoylpyrimidin-5-yl)piperazin-1-yl)-6-fluoro-1H-benzimidazole-4-carboxamide]
  inhibition at 0.03 µM: 77%
  inhibition at 0.1 µM: 93%

## COc1cnc(N2CCN(c3nc4c(C(N)=O)cccc4[nH]3)CC2)nc1 [Compound (5), 2-(4-(5-methoxypyrimidin-2-yl)piperazin-1-yl)-1H-benzimidazole-4-carboxamide]
  inhibition at 0.03 µM: 32%
  inhibition at 0.1 µM: 60%

— patent publication US10196381B2, “Benzimidazole-2-piperazine heterocyclic compound, pharmaceutical composition containing the same, preparation method and use thereof” (Shanghai Huilun Life Science & Technology Co., Ltd., priority 2013, dated 2019)
